Test results: US20230052189A1, “TREATMENT OF PRIMARY BILIARY CHOLANGITIS WITH ELAFIBRANOR” (Genfit, priority 2020, published 2023)

Legend:
subjects with PBC [1] = assay: Phase 2 double-blind placebo-controlled study: change from baseline in serum ALP; type: in vivo, human; conditions: for treatment effect estimate vs placebo, relative change in serum ALP (supportive analysis): ANCOVA with baseline ALP as covariate; for treatment effect estimate vs placebo, relative change in serum ALP (primary analysis): non-parametric randomization-based ANCOVA with baseline ALP as covariate, p<0.001; for mean relative change (%) from baseline to Endpoint in serum ALP: 12-week treatment, placebo 3.2%
Procedure: (§1) The study was a Phase 2, double-blind, randomized, parallel group, placebo-controlled study, designed to evaluate the efficacy and safety of elafibranor at doses of 80 mg or 120 mg daily vs placebo in an adult PBC population. This study projected to randomize approximately 45 subjects to 3 treatment groups in a 1:1:1 ratio (elafibranor 80 mg, elafibranor 120 mg, or placebo).
(§2) Subject participation was planned to be a maximum of 20 weeks. The study was comprised of 3 periods: a Screening Period, a Treatment Period, and a Follow-up Period. The Screening Period (Week −4 to Week −1) preceded the 12-week double-blind Treatment Period.
A decrease in ALP levels is recognized as a particularly relevant surrogate marker for the treatment of PBC. Consequently the primary endpoint of the study is to evaluate the efficacy of elafibranor 80 mg or 120 mg with respect to relative change from baseline in serum ALP levels compared to placebo.

subjects with PBC [2] = assay: Phase 2 study: pruritus (itching) domain of PBC-40 quality of life questionnaire; type: in vivo, human; conditions: for median absolute change from baseline to Endpoint in the pruritus/itching domain of PBC-40: placebo 0.0; for median relative change from baseline to Endpoint in the pruritus/itching domain of PBC-40: placebo 0%; for mean absolute change from baseline to Endpoint in the pruritus (itching) domain of PBC-40: placebo 2.1
Procedure: as §1, §2

subjects with PBC [3] = assay: Phase 2 study: change from baseline in pruritus visual analogue scale (VAS); type: in vivo, human; conditions: for median relative change from baseline to Endpoint in the pruritus VAS: placebo −7.1%
Procedure: as §1, §2
Considering that pruritus is a preeminent adverse event in subjects with PBC, assessment of pruritus was also considered. More specifically, the change from baseline in pruritus (through 5D-itch scale (measuring the degree, duration, direction [improvement or worsening], disability [effect on daily activities], and distribution of itching) and visual analogue scale for pruritus (VAS).
The 5D-itch scale is a reliable, multidimensional measure of itching that has been validated in patients with chronic pruritus to detect changes over time (Elman S, et al., The 5-D itch scale: a new measure of pruritus. Br J Dermatol. 2010; 162(3):587-593.). The VAS is a reliable and validated method of pruritus assessment (Reich A, et al., Visual analogue scale: evaluation of the instrument for the assessment of pruritus. Acta Derm Venereol.2012; 92(5):497-501).
Pruritus scoring values and absolute changes from baseline are provided for each domain of the 5D-itch scale (duration, degree, direction, disability, and distribution) and for the VAS by subject and by visit; baseline and Endpoint values are flagged in this listing; total scores at each visit are also summarized in this listing.

subjects with PBC [4] = assay: Phase 2 study: tolerability and safety (TEAEs, pruritus worsening); type: in vivo, human; conditions: for percentage of subjects reporting TEAEs (Treatment-Emergent Adverse Events): placebo 80.0%
Procedure: as §1, §2
The tolerability and safety of once-per-day oral administration of elafibranor in 80-mg and 120-mg doses in subjects with PBC was assessed as follows: • Physical examination • Vital signs • Medical history • ECG • Hematological parameters • Liver markers • Other biochemical safety parameters

patients with PBC = conditions: Nevens et al. 2016; cited from earlier work
[5] = 80 mg and 120 mg treatment groups

CSc1ccc(C(=O)C=Cc2cc(C)c(OC(C)(C)C(=O)O)c(C)c2)cc1 [elafibranor, 2-(2,6-dimethyl-4-{3-[4-(methylsulfanyl)phenyl]-3-oxopropen-1-yl}phenoxy)-2-methylpropanoic acid]
change from baseline in serum ALP vs placebo at Endpoint (significance) (subjects with PBC [1]; [5]): statistically significantly different from placebo | mean ALP values from baseline through Week 12 (trend) (subjects with PBC [1]; 80 mg and 120 mg treatment groups, 12 week study): declining mean ALP values | treatment effect estimate vs placebo, relative change in serum ALP (supportive analysis) (subjects with PBC [1]; 80 mg, 95% CI [−63.3, −39.5]): −51.4% | treatment effect estimate vs placebo, relative change in serum ALP (primary analysis) (subjects with PBC [1]; 80 mg, 95% CI [−62.5, −41.5]): −52.0% | treatment effect estimate vs placebo, relative change in serum ALP (supportive analysis) (subjects with PBC [1]; 120 mg, 95% CI [−55.8, −31.9]): −43.9% | treatment effect estimate vs placebo, relative change in serum ALP (primary analysis) (subjects with PBC [1]; 120 mg, 95% CI [−55.7, −32.1]): −43.9% | mean relative change (%) from baseline to Endpoint in serum ALP (subjects with PBC [1]; elafibranor 80 mg daily oral): −48.3% | mean relative change (%) from baseline to Endpoint in serum ALP (subjects with PBC [1]; elafibranor 120 mg daily oral): −40.6% | median absolute change from baseline to Endpoint in the pruritus/itching domain of PBC-40 (subjects with PBC [2]; 80 mg): −1.0 | median relative change from baseline to Endpoint in the pruritus/itching domain of PBC-40 (subjects with PBC [2]; 80 mg): −25.0% | mean absolute change from baseline to Endpoint in the pruritus (itching) domain of PBC-40 (subjects with PBC [2]; 80 mg): −0.9 | median absolute change from baseline to Endpoint in the pruritus/itching domain of PBC-40 (subjects with PBC [2]; 120 mg): −1.0 | median relative change from baseline to Endpoint in the pruritus/itching domain of PBC-40 (subjects with PBC [2]; 120 mg): −20.8% | mean absolute change from baseline to Endpoint in the pruritus (itching) domain of PBC-40 (subjects with PBC [2]; 120 mg): −4.1 | median pruritus VAS from baseline through Week 12 (trend) (subjects with PBC [3]; [5]): declining median VAS as early as Week 2 | median relative change from baseline to Endpoint in the pruritus VAS (subjects with PBC [3]; 80 mg): −23.7% | median relative change from baseline to Endpoint in the pruritus VAS (subjects with PBC [3]; 120 mg): −49.5% | safety and tolerability in patients (subjects with PBC [4]; 80 mg and 120 mg): safe and well-tolerated | worsening of pruritus (subjects with PBC [4]; 80 mg and 120 mg): no worsening of pruritus | percentage of subjects reporting TEAEs (Treatment-Emergent Adverse Events) (subjects with PBC [4]; 80 mg): 80.0% | percentage of subjects reporting TEAEs (Treatment-Emergent Adverse Events) (subjects with PBC [4]; 120 mg): 86.7%

CC[C@H]1[C@@H](O)[C@@H]2[C@H](CC[C@]3(C)[C@@H]([C@H](C)CCC(=O)O)CC[C@@H]23)[C@@]2(C)CC[C@@H](O)C[C@@H]12 [OCA, obeticholic acid]
pruritus adverse event (patients with PBC): severe pruritus has been reported
